{"source": "patent US10881642B2", "about": "“Autophagy enhancer and use thereof” (Industry-Academic Cooperation Foundation, Yonsei University, priority 2016, dated 2021)", "tested_on": "HFD-fed hIAPP+ mice", "experiment": "Metabolic profile and islet amyloid of HFD-fed hIAPP+ mice", "format": "in vivo", "experimental": "(FIG. 13A) INS-1 cells transfected with non-amyloidogenic prepro-mIAPP-HA or amyloidogenic prepro-hIAPP-HA construct were treated with MSL or MSL-7 followed by western blot analysis using anti-HA antibody. (FIG. 13B) the transfected cells of (FIG. 13A) were treated with MSL-7 in the presence or absence of bafilomycin followed by western blot analysis using anti-HA antibody. (FIG. 13C) The transfected cells were treated with MSL-7 in the presence or absence of 3-MA, after which the amount of […] contained in the cell lysates were measured. (FIG. 13D) HFD-fed hIAPP+ mice were administered with MSL-7, and non-fasting glucose level was monitored. (FIG. 13E) IPGTT. (FIG. 13F) HFD-fed hIAPP+ mice were administered with MSL-7 for 8 weeks and the insulinogenic index was measured. (FIG. 13G) HFD-fed hIAPP+ mice were administered with MSL-7 for 8 weeks and the pancreatic section was obtained. All antibody was used for immunohistochemistry (left). The percentage of A11-[…] cells among DAPI+ cells (right). (FIG. 13H) FSB stained pancreatic section of HFD-fed hIAPP+ mice administered with MSL-7 for 8 weeks (left). Average fluorescence intensity/area (right).\nScreening of autophagy enhancer. […] Luciferase assay. Firefly and Renilla luciferase assays were conducted using the Dual-Luciferase Reporter Assay System (Promega) according to the manufacturer's recommendation. In brief, cells were lysed in 1× lysis buffer and subjected to a single round of freezing/thawing. Firefly luciferase was determined after mixing 5 μl of lysate with 25 μl of Luciferase Assay Reagent II. Renilla luciferase was then determined after further addition of 20 ul of Stop&Glo Reagent. Cell culture and media and drugs treatment. HeLa, TFEB-GFP-HeLa, SK-HEP1 (hepatoma cell line) and Hepa1c1c7 (hepatoma cell line) cells were cultured in the following media: (normal) Dulbecco's modified Eagle's medium (DMEM, Sigma-Aldrich) supplemented with 10% FBS and 1% penicillin/streptomycin; (starvation) HBSS media with Ca and Mg supplemented with 10 mM HEPES; Drugs treatment: MSL compound (50-100 μM); Rapamycin ([…]); Torin-1 (1 μM); Bafilomycin (100 nM); Cyclosporin A (10 μM); and FK506 (5 μM). Cells were treated with oleic acid (400 μM) and palmitic acid (400 μM) for 24 h. Where indicated, cells were washed off with HBSS and replaced by DMEM with or without MSL for 16 h. INS-1 cells, a insulinoma cell line of […] were cultured as described previously (Kim et al., 2014 ibid) in the presence or absence of bafilomycin and treated with MSL-7. Lactate dehydrogenase (LDH) assay. Cytotoxicity was determined by the measurement of LDH release in cell culture media using the LDH kit (Roche), according to the protocol from the manufacturer. Transfection and plasmids. Cells were transiently transfected with DNA plasmids 3×FLAG-hTFEB (A Ballabio), FYVE-dsRed (Cantley LC), RFP-LC3 or mRFP-GFP-LC3 using lipofectamine 2000 (Invitrogen) according to the protocol from the manufacturer. […] Imaging and image quantification. […] Formation of acidic vesicular organelles was quantitated by staining the cells with acridine orange (Invitrogen, 5 ug/ml, 10 min). […] Cells or tissues were solubilized in lysis buffer supplemented with protease and phosphatase inhibitors and protein concentration was measured by the Bradford method. Ten to 30 micrograms were loaded on 4-12% Bis-Tris gel (NUPAGE, Invitrogen) or 8-15% SDS-PAGE, transferred to PVDF membranes and analyzed by western blot using the ECL method (Pierce). […]"}
{"molecule": "COc1oc(-c2ccccc2Cl)nc1S(=O)(=O)c1ccccc1", "note": "[MSL-7, 2-(2-chlorophenyl)-5-methoxy-4-(phenylsulfonyl) oxazole]", "values": [{"measurement": "non-fasting glucose level", "value": "significantly reduced"}, {"measurement": "FSB-stained pancreatic islet amyloid", "setting": "8-week administration", "value": "similarly reduced"}, {"measurement": "accumulation of hIAPP oligomer (A11 antibody)", "setting": "8-week administration", "value": "significantly reduced"}, {"measurement": "Glucose intolerance (IPGTT)", "setting": "8 week treatment", "value": "significantly improved"}, {"measurement": "insulinogenic index", "setting": "8 week treatment", "value": "significantly improved"}]}
